Molecular target: T1, D-amino acid oxidase (DAAO) (Mus musculus, UniProt P18894)
T1 construct: gene Dao
Test: cell-based

T1 sequence (P18894 whole entry): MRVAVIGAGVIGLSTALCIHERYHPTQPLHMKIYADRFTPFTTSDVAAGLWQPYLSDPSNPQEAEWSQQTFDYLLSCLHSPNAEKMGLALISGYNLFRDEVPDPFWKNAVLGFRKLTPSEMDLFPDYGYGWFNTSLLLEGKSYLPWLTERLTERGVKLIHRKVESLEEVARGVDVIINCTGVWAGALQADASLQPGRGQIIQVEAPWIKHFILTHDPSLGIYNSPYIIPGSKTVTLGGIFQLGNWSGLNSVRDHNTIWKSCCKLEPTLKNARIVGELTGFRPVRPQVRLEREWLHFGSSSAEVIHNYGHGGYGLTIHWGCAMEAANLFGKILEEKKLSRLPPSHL

Compound `O=c1[nH]nc(CCc2ccc(C(F)(F)F)cc2)cc1O` [luvadaxistat] has an IC50 of 5.1 nM.

Reference: PMC10471729, “Luvadaxistat: A Novel Potent and Selective D-Amino Acid Oxidase Inhibitor Improves Cognitive and Social Deficits in Rodent Models for Schizophrenia” (Neurochemical Research, 2023)
